Consider 10 molecules from patent US11530217B1, “Antitubercular compounds” (priority 2022, dated 2022).

Values after ≈ are worked out from the molar mass of the structure shown.

This test deals with rifampicin and isoniazid-resistant MTB strain (MDR-MTB). Description: microbe, parasite or virus in culture. The format is cell-based. The settings on record: Mycobacterium tuberculosis, 192 h, read-out: MIC (μg/mL) MDR-MTB.
`CCOC(=O)c1cc(C(=O)c2ccc(Cl)cc2)n2cc(C)cc(C)c12` [Compound 5c, Ethyl 3-(4-chlorobenzoyl)-6,8-dimethylindolizine-1-carboxylate]: the MIC was determined as 1 µg/mL (≈ 2.81 µM).
Then `COC(=O)c1c(C(=O)OC)c2c(C)cc(C)cn2c1C(=O)c1ccc(OC)cc1` [Compound 5b, Dimethyl 3-(4-methoxybenzoyl)-6,8-dimethylindolizine-1,2-dicarboxylate], with 64 µg/mL (≈ 162 µM); and `COC(=O)c1c(C(=O)OC)c2c(C)cc(C)cn2c1C(=O)c1ccc(C#N)cc1` [Compound 5l, Dimethyl 3-(4-cyanobenzoyl)-6,8-dimethylindolizine-1,2-dicarboxylate], with 8 µg/mL (≈ 20.5 µM); and `CCOC(=O)c1cc(C(=O)c2ccc(F)cc2)n2cc(C)cc(C)c12` [Compound 5g, Ethyl 3-(4-fluorobenzoyl)-6,8-dimethylindolizine-1-carboxylate], with 4 µg/mL (≈ 11.8 µM).
Then `CCOC(=O)c1cc(C(=O)c2ccc(C)cc2)n2cc(C)cc(C)c12` [Compound 5k, Ethyl 6,8-dimethyl-3-(4-methylbenzoyl)indolizine-1-carboxylate], with 4 µg/mL (≈ 11.9 µM); and `COC(=O)c1c(C(=O)OC)c2c(C)cc(C)cn2c1C(=O)c1ccc(Cl)cc1` [Compound 5d, Dimethyl 3-(4-chlorobenzoyl)-6,8-dimethylindolizine-1,2-dicarboxylate], with 64 µg/mL (≈ 160 µM); and `CCOC(=O)c1cc(C(=O)c2ccccc2[N+](=O)[O-])n2cc(C)cc(C)c12` [Compound 5h, Ethyl 6,8-dimethyl-3-(2-nitrobenzoyl)indolizine-1-carboxylate], with 4 µg/mL (≈ 10.9 µM).
In the case of `COC(=O)c1c(C(=O)OC)c2c(C)cc(C)cn2c1C(=O)c1ccc(C)cc1` [Compound 5m, Dimethyl 6,8-dimethyl-3-(4-methylbenzoyl)indolizine-1,2-dicarboxylate] it was 1 µg/mL (≈ 2.64 µM); in that of `CCOC(=O)c1cc(C(=O)c2cc(C(F)(F)F)cc(C(F)(F)F)c2)n2cc(C)cc(C)c12` [Compound 5i, Ethyl 3-(3,5-bis(trifluoromethyl)benzoyl)-6,8-dimethylindolizine-1-carboxylate], 16 µg/mL (≈ 35 µM); in that of `CCOC(=O)c1cc(C(=O)c2ccc(C#N)cc2)n2cc(C)cc(C)c12` [Compound 5j, Ethyl 3-(4-cyanobenzoyl)-6,8-dimethylindolizine-1-carboxylate], 4 µg/mL (≈ 11.5 µM).
